These results are taken from US20150133426A1, “SUBSTITUTED PYRROLOPYRIMIDINES” (BAYER PHARMA AKTIENGESELLSCHAFT, priority 2012, published 2015).

This assay addresses T1, human full-length MKNK1 (Homo sapiens, UniProt Q9BUB5, T385D).
T1 construct: purchased Carna Biosciences 02-145; host or cells: insect cells, baculovirus expression system
The assay can be described thus: MKNK1 kinase high ATP assay (TR-FRET). In kind it is biochemical. Conditions: high ATP (2 mM), 15 min preincubation with enzyme, GST-MKNK1 (T344D). The method in brief:
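GST-tagged full-length human MKNK1 (aa 1-424, T344D), baculovirus-expressed, preincubated 15 min with compound, then reacted 30 min at 22 °C with 2 mM ATP and 0.06 µM biotinylated peptide (final).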

SMILES strings stand for the structures.

T1 sequence (Q9BUB5 1-424 isoform Q9BUB5-2 T344D): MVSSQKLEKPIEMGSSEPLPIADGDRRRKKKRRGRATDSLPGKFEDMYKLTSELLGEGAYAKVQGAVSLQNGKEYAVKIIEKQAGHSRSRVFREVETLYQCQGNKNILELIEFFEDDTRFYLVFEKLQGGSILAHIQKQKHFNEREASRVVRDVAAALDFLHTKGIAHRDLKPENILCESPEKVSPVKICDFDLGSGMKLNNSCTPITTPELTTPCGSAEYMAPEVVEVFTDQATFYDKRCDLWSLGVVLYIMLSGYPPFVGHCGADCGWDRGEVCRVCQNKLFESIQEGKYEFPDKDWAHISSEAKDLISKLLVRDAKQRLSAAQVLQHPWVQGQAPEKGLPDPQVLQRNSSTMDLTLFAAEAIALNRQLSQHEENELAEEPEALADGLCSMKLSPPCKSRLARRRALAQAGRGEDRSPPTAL

Turning to `COc1ccc(C(F)(F)F)cc1Nc1ncnc2[nH]c3c(c12)CC(C(=O)N1CCN(C)CC1)CC3` (racemic) [Example 215, (RS)-(4-{[2-Methoxy-5-(trifluoromethyl)phenyl]amino}-6,7,8,9-tetrahydro-5H-pyrimido[4,5-b]indol-6-yl)(4-methylpiperazin-1-yl)methanone], 0.093 µM corresponded to half-maximal inhibition (IC50).
Next, `COc1cc2[nH]ncc2cc1Nc1ncnc2[nH]c3c(c12)CC(C(=O)NC(C)C)CC3` (racemic) [Example 216, (RS)-4-[(6-Methoxy-1H-indazol-5-yl)amino]-N-(propan-2-yl)-6,7,8,9-tetrahydro-5H-pyrimido[4,5-b]indole-6-carboxamide]: 0.005 µM; `CNC(=O)C1CCc2[nH]c3ncnc(Nc4cc5cn[nH]c5cc4OC)c3c2C1` (racemic) [Example 217, (RS)-4-[(6-Methoxy-1H-indazol-5-yl)amino]-N-methyl-6,7,8,9-tetrahydro-5H-pyrimido[4,5-b]indole-6-carboxamide]: 0.01 µM; `CCNC(=O)C1CCc2[nH]c3ncnc(Nc4cc5cn[nH]c5cc4OC)c3c2C1` (racemic) [Example 218, (RS)—N-Ethyl-4-[(6-methoxy-1H-indazol-5-yl)amino]-6,7,8,9-tetrahydro-5H-pyrimido[4,5-b]indole-6-carboxamide]: 0.006 µM.
The figure for `COc1cc2[nH]ncc2cc1Nc1ncnc2[nH]c3c(c12)CC(C(=O)NCc1ccccc1)CC3` (racemic) [Example 219, (RS)—N-Benzyl-4-[(6-methoxy-1H-indazol-5-yl)amino]-6,7,8,9-tetrahydro-5H-pyrimido[4,5-b]indole-6-carboxamide] is 0.001 µM.
As to `COc1cc2[nH]ncc2cc1Nc1ncnc2[nH]c3c(c12)CC(C(=O)NCc1cccc(C(F)(F)F)c1)CC3` (racemic) [Example 220, (RS)-4-[(6-Methoxy-1H-indazol-5-yl)amino]-N-[3-(trifluoromethyl)benzyl]-6,7,8,9-tetrahydro-5H-pyrimido[4,5-b]indole-6-carboxamide], half-maximal inhibition (IC50) was put at 0.003 µM.
In turn, `COc1cc2[nH]ncc2cc1Nc1ncnc2[nH]c3c(c12)CC(C(=O)N1CCN(C)CC1)CC3` (racemic) [Example 221, (RS)-{4-[(6-Methoxy-1H-indazol-5-yl)amino]-6,7,8,9-tetrahydro-5H-pyrimido[4,5-b]indol-6-yl}(4-methylpiperazin-1-yl)methanone] returned an IC50 of 0.004 µM.
`CN1CCN(C(=O)C2CCc3[nH]c4ncnc(Nc5ccc6[nH]c(=O)sc6c5)c4c3C2)CC1` (racemic) [Example 222, (RS)-6-({6-[(4-Methylpiperazin-1-yl)carbonyl]-6,7,8,9-tetrahydro-5H-pyrimido[4,5-b]indol-4-yl}amino)-1,3-benzothiazol-2(3H)-one] yielded an IC50 of 0.025 µM.
With `CC(C)NC(=O)C1CCc2[nH]c3ncnc(Nc4ccc(F)cc4OC(C)C)c3c2C1` (racemic) [Example 223, (RS)-4-{[4-Fluoro-2-(propan-2-yloxy)phenyl]amino}-N-(propan-2-yl)-6,7,8,9-tetrahydro-5H-pyrimido[4,5-b]indole-6-carboxamide], the IC50 was 0.053 µM.
`COc1ccc(Cl)cc1Nc1ncnc2[nH]c3c(c12)CC(C(=O)NC(C)C)CC3` (racemic) [Example 224, (RS)-4-[(5-Chloro-2-methoxyphenyl)amino]-N-(propan-2-yl)-6,7,8,9-tetrahydro-5H-pyrimido[4,5-b]indole-6-carboxamide] displayed an IC50 of 0.04 µM.
The compound `CC(C)NC(=O)C1CCc2[nH]c3ncnc(Nc4cc(Cl)ccc4OC(C)C)c3c2C1` (racemic) [Example 225, (RS)-4-{[5-Chloro-2-(propan-2-yloxy)phenyl]amino}-N-(propan-2-yl)-6,7,8,9-tetrahydro-5H-pyrimido[4,5-b]indole-6-carboxamide] returned an IC50 of 1.04 µM.
Turning to `COc1cc(Cl)c(Cl)cc1Nc1ncnc2[nH]c3c(c12)CC(C(=O)NC(C)C)CC3` (racemic) [Example 226, (RS)-4-[(4,5-Dichloro-2-methoxyphenyl)amino]-N-(propan-2-yl)-6,7,8,9-tetrahydro-5H-pyrimido[4,5-b]indole-6-carboxamide], the midpoint of inhibition, the IC50, lay at 0.019 µM.
Next, `CC(C)NC(=O)C1CCc2[nH]c3ncnc(Nc4ccc5[nH]ncc5c4)c3c2C1` (racemic) [Example 227, (RS)-4-(1H-Indazol-5-ylamino)-N-(propan-2-yl)-6,7,8,9-tetrahydro-5H-pyrimido[4,5-b]indole-6-carboxamide]: 0.024 µM; `CCOC(=O)CNC(=O)C1CCc2[nH]c3ncnc(Nc4ccc(F)cc4OCCO)c3c2C1` (racemic) [Example 228, (RS)-Ethyl N-[(4-{[4-fluoro-2-(2-hydroxyethoxy)phenyl]amino}-6,7,8,9-tetrahydro-5H-pyrimido[4,5-b]indol-6-yl)carbonyl]glycinate]: 0.051 µM.
For the compound `O=C1OCCOc2cc(F)ccc2Nc2ncnc3[nH]c4c(c23)CC1CC4` (racemic) [Example 229, (RS)-11-Fluoro-1,3,4,7,8,14-hexahydro-5H-2,4-ethano-6,9-dioxa-1,14,15,17-tetraazabenzo[5,6]cyclotrideca[1,2,3-cd]inden-5-one], 3.54 µM corresponded to half-maximal inhibition (IC50).
On to `CC(C)Oc1cc2[nH]ncc2cc1Nc1ncnc2[nH]c3c(c12)CC(C(=O)NCCCS(C)(=O)=O)CC3` (racemic) [Example 230, (RS)—N-[3-(Methylsulfonyl)propyl]-4-{[6-(propan-2-yloxy)-1H-indazol-5-yl]amino}-6,7,8,9-tetrahydro-5H-pyrimido[4,5-b]indole-6-carboxamide], for which the IC50 stood at 0.001 µM.
On to `COCC1(OC)CCc2[nH]c3ncnc(Nc4cc5cn[nH]c5cc4OC(C)C)c3c2C1` (racemic) [Example 231, (RS)-6-Methoxy-6-(methoxymethyl)-N-[6-(propan-2-yloxy)-1H-indazol-5-yl]-6,7,8,9-tetrahydro-5H-pyrimido[4,5-b]indol-4-amine], for which the IC50 worked out at 0.05 µM.
On to `O=C(O)C1CCc2[nH]c3ncnc(Nc4ccc(Cl)c(Cl)c4)c3c2C1` (racemic) [Example 233, (RS)-4-[(3,4-Dichlorophenyl)amino]-6,7,8,9-tetrahydro-5H-pyrimido[4,5-b]indole-6-carboxylic acid], for which the IC50 is 0.149 µM.
Consider `CC(C)Oc1ccc(Cl)cc1Nc1ncnc2[nH]c3c(c12)CC(C(=O)O)CC3` (racemic) [Example 234, (RS)-4-{[5-Chloro-2-(propan-2-yloxy)phenyl]amino}-6,7,8,9-tetrahydro-5H-pyrimido[4,5-b]indole-6-carboxylic acid], for which the IC50 was 0.288 µM.
Turning to `COc1ccc(Cl)cc1Nc1ncnc2[nH]c3c(c12)CC(C(=O)O)CC3` (racemic) [Example 235, (RS)-4-[(5-Chloro-2-methoxyphenyl)amino]-6,7,8,9-tetrahydro-5H-pyrimido[4,5-b]indole-6-carboxylic acid], the IC50 amounted to 0.159 µM.
As for `O=C(O)C1CCc2[nH]c3ncnc(Nc4cc5[nH]c(=O)[nH]c5cc4Cl)c3c2C1` (racemic) [Example 237, (RS)-4-[(6-Chloro-2-oxo-2,3-dihydro-1H-benzimidazol-5-yl)amino]-6,7,8,9-tetrahydro-5H-pyrimido[4,5-b]indole-6-carboxylic acid], inhibition was half-maximal at 12.3 µM (IC50).
Compound `CC(C)Oc1cc(F)ccc1Nc1ncnc2[nH]c3c(c12)CCCC3` [Example 1, N-(4-Fluoro-2-isopropoxyphenyl)-6,7,8,9-tetrahydro-5H-pyrimido[4,5-b]indol-4-amine] returned an IC50 of 0.043 µM.
The figure for `c1nc(Nc2ccc3[nH]ncc3c2)c2c3c([nH]c2n1)CCCC3` [Example 2, N-(1H-Indazol-5-yl)-6,7,8,9-tetrahydro-5H-pyrimido[4,5-b]indol-4-amine] is 0.027 µM; for `c1nc(Nc2ccc3[nH]ncc3c2)c2c3c([nH]c2n1)CCCCC3` [Example 3, N-(1H-Indazol-5-yl)-5,6,7,8,9,10-hexahydrocyclohepta[4,5]pyrrolo[2,3-d]pyrimidin-4-amine] it is 0.045 µM.
The compound `CC(C)Oc1cc(F)ccc1Nc1ncnc2[nH]c3c(c12)CCCCC3` [Example 4, N-(4-Fluoro-2-isopropoxyphenyl)-5,6,7,8,9,10-hexahydrocyclohepta[4,5]pyrrolo[2,3-d]pyrimidin-4-amine] displayed an IC50 of 0.258 µM.
`CC(C)Oc1cc(F)ccc1Nc1ncnc2[nH]c3c(c12)CN(Cc1ccccc1)CC3` [Example 8, 6-Benzyl-N-(4-fluoro-2-isopropoxyphenyl)-6,7,8,9-tetrahydro-5H-pyrido[3′,4′:4,5]pyrrolo[2,3-d]pyrimidin-4-amine] gave an IC50 of 2.94 µM.
For `CC(C)Oc1cc(F)ccc1Nc1ncnc2[nH]c3c(c12)CC(F)(F)CC3` [Example 9, 6,6-Difluoro-N-(4-fluoro-2-isopropoxyphenyl)-6,7,8,9-tetrahydro-5H-pyrimido[4,5-b]indol-4-amine], half-maximal inhibition (IC50) was put at 0.085 µM.
On to `FC1(F)CCc2[nH]c3ncnc(Nc4ccc5[nH]ncc5c4)c3c2C1` [Example 10, 6,6-Difluoro-N-(1H-indazol-5-yl)-6,7,8,9-tetrahydro-5H-pyrimido[4,5-b]indol-4-amine], for which the IC50 is 0.024 µM.
Regarding `CC(C)Oc1cc(F)ccc1Nc1ncnc2[nH]c3c(c12)CSCC3` [Example 11, N-(4-Fluoro-2-isopropoxyphenyl)-5,7,8,9-tetrahydrothiopyrano[3′,4′:4,5]pyrrolo[2,3-d]pyrimidin-4-amine], the IC50 stood at 0.042 µM.
Compound `c1ccc(CN2CCc3[nH]c4ncnc(Nc5ccc6[nH]ncc6c5)c4c3C2)cc1` [Example 24, 6-Benzyl-N-(1H-indazol-5-yl)-6,7,8,9-tetrahydro-5H-pyrido[3′,4′:4,5]pyrrolo[2,3-d]pyrimidin-4-amine] returned an IC50 of 0.367 µM.
As for `c1nc(Nc2ccc3[nH]ncc3c2)c2c3c([nH]c2n1)CCC1(C3)OCCO1` [Example 27, N-(1H-Indazol-5-yl)-5′,7′,8′,9′-tetrahydrospiro[1,3-dioxolane-2,6′-pyrimido[4,5-b]indol]-4′-amine], half-maximal inhibition (IC50) required 0.051 µM.
Next, `c1nc(Nc2ccc3[nH]ncc3c2)c2c3c([nH]c2n1)CCSC3` [Example 66, N-(1H-Indazol-5-yl)-5,7,8,9-tetrahydrothiopyrano[3′,4′:4,5]pyrrolo[2,3-d]pyrimidin-4-amine]: 0.043 µM.
